Source: patent publication US20240253033A1, “MICROFLUIDIC DETECTION SYSTEM WITH ADJUSTABLE FLOW CONTROL” (priority 2022, published 2024)
Like-named read-outs stand apart in the source and are kept apart here.

Assays:
[1] = test system: MRSA; test: Phenotypic QolorAST rapid AST (resazurin reduction); assay type: cell-based, Staphylococcus aureus; details: 10^5 cfu/mL MRSA, antibiotic concentrations, 0-60 min
Experimental: (§1) Resistant E. coli, Oxacillin-resistant S. aureus, and Cipro. Resistant PA respectively was used. The aliquots were incubated at 37° C. different periods starting from 0 minutes incubation till 60 minutes with a time step of 5 minutes.
(§2) Resistant PA respectively was used. The aliquots were incubated at 37° C. different periods starting from 0 minutes incubation until 60 minutes with a time step of 5 minutes.
(§3) MRSA and PA respectively.

[2] = test system: MRSA; test: QolorAST minimum inhibitory concentration (MIC) test; assay type: cell-based, Staphylococcus aureus
Experimental: Ampicillin-resistant E. coli strain mm294 was cultured overnight at 37° C. in Luria broth (LB) media supplemented with 100 μg/mL Ampicillin. […] Next, the bacterial concentration was determined by optical density technique using a Spectronic 21D spectrophotometer. Subsequently, aliquots of different concentrations were prepared for the antibiotic susceptibility testing experiments in LB media. Biotyper spectra (MALDI Bruker).
(§4) 5×10^5 CFU ml^−1 Oxacillin-resistant S. aureus aliquots were prepared using resazurin/oxacillin solution using different concentrations of oxacillin antibiotic (16 μg/mL, 32 μg/mL, and 64 μg/mL). 5×10^5 CFU ml^−1 Cipro.
(§5) A minimum inhibitory concentration (MIC) was performed to study the QolorAST broad applicability in detecting bacterial resistance profiles and ensuring timely and efficient antimicrobial theraby. […] The antibiotics cover major bacterial inhibition mechanisms as inhibition of protein synthesis, cell wall synthesis, and/or DNA synthesis.
(§6) QolorAST exploited two methodologies: Manual MIC (MA-MIC) and support vector machine MIC (SVM-MIC). […] The SVM-MIC was carried out with a rbf kernel that was optimized and trained to predict the color change of the preclinical images using our library of bacteria images collected under different conditions including images where color is changed, color transitioning, and no color change. The SVM successfully classified the condition's bacteria-antibiotic in the concentration range studied.

[3] = test system: Pseudomonas aeruginosa; test: Phenotypic QolorAST rapid AST (resazurin reduction); assay type: cell-based; details: 10^5 cfu/mL PA, antibiotic concentrations, 0-60 min
Experimental: as §1, §2, §3

[4] = test system: E coli MG1655; details: E coli MG1655 spiked in urine
Experimental: To obtain spiked human samples, first human urine was centrifuged at 5000 rcf for 5 minutes to remove large particles. It was subsequently spiked with 5×10^5 CFU ml^−1 and mixed with a solution of Resazurin to a final concentration of 0.02%. No antibiotics were added for the control aliquots, 32 μg/mL Ampicillin was added for resistant aliquots and 16 μg/mL Kanamycin was added for susceptible aliquots. The aliquots were incubated at 37° C. different periods starting from 0 minutes incubation till 60 minutes with a time step of 5 minutes.
According to the Infectious Diseases Society of America (IDSA), 105 CFU ml^−1 and 102 CFU ml^−1 were spiked in-vivo in urine, serum, and nasal swab of donors to simulate urinary tract infection, wound infection, and pneumonia by MRSA, respectively. Human urine was spiked with different concentrations of E. coli (FIG. 32D). As a control the healthy human biofluids were screened as received.

[5] = test system: A. baumannii; test: Conventional broth microdilution (BMD) MIC; assay type: cell-based, Acinetobacter baumannii
Experimental: (§7) For clinical MIC, bacteria were streaked on LB agar overnight and resuspended in a water aliquot. The aliquot was measured, and the bacteria concentration was adjusted to of 10^6 CFU ml^−1 in LB media. A 96 well plate with an antibiotic gradient from 128 μg/ml to 0.125 μg/ml in a 2-fold concentration dilution step was prepared with a positive control with no antibiotics. Next, the bacteria were introduced to each well of the 96 well plate for a final bacteria concentration of 5×10^5 CFU ml^−1. The well plates were cultured overnight the minimum inhibitory concentration was determined as the antibiotic concentration that didn't show any signs of bacterial growth.

[6] = test system: A. baumannii; test: QolorAST minimum inhibitory concentration (MIC) test; assay type: cell-based, Acinetobacter baumannii
Experimental: (§8) Acinetobacter baumannii, Enterococcus faecalis, Enterococcus faecium, Streptococcus agalactiae, Enterobacter cloacae, Klebsiella pneumoniae, Streptococcus pneumoniae, E coli MG1655, and E coli Trimethoprim resistant were streaked on LB miller agar overnight at 37° C. and resuspended in water aliquot. Next, the bacterial concentration was determined using optical density technique. Subsequently, aliquots of different concentrations were prepared for the antibiotic susceptibility testing experiments in CamHB growth media.
as §4, §5, §6

[7] = test system: S. pneumonia; test: as above; assay type: cell-based, Streptococcus pneumoniae
Experimental: as §8, §4, §5, §6

[8] = test system: E. cloacae; test: Conventional broth microdilution (BMD) MIC; assay type: cell-based, Enterobacter cloacae
Experimental: as §7

[9] = test system: S. pneumonia; test: Conventional broth microdilution (BMD) MIC; assay type: cell-based, Streptococcus pneumoniae
Experimental: as §7

[10] = test system: S. agalactiae; test: QolorAST minimum inhibitory concentration (MIC) test; assay type: cell-based, Streptococcus agalactiae
Experimental: as §8, §4, §5, §6

[11] = test system: K. pneumonia; test: Conventional broth microdilution (BMD) MIC; assay type: cell-based, Klebsiella pneumoniae
Experimental: as §7

[12] = test system: S. agalactiae; test: Conventional broth microdilution (BMD) MIC; assay type: cell-based, Streptococcus agalactiae
Experimental: as §7

[13] = test system: E. cloacae; test: QolorAST minimum inhibitory concentration (MIC) test; assay type: cell-based, Enterobacter cloacae
Experimental: as §8, §4, §5, §6

[14] = test system: K. pneumonia; test: as above; assay type: cell-based, Klebsiella pneumoniae
Experimental: as §8, §4, §5, §6

[15] = test system: E. coli; test: Standard broth microdilution MIC on isolates from patient urine specimens; assay type: cell-based, Escherichia coli
Experimental: For the standard testing the urine specimens were diluted 1/1000 using CamHB and both the original concentration and a 1/1000 dilution of the specimen were plated on BAP with a 1 μL calibrated loop and incubated for 18-20h at 37 C with 5% CO2. The […] concentration is then calculated for all the isolates coming from each specimen. […] At the end of the process, the inoculum quantification is checked by counted CFU from serial dilutions of the inoculum. A growth positive control (inoculum with no antibiotic), a wild type strain of E. Coli (MG1655) and E. Faecalis are also included and processed in the same way as the isolates for each experiment. Finally, each isolate is plated on BAP to control their monoculture state and to be identified by MALDI.
Samples were tested in parallel using two methods: conventional (Matrix-assisted laser desorption/ionization-time of flight—MALDI/TOF—for bacterial identification and CLSI BMD method for AST) and QolorAST (genotypic for bacterial ID and phenotypic AST). […] Subsequently, we used the images of negative, fastidious, and not fastidious samples to establish a new training for the SVM to classify the specimens into no growth (negative) and growth (positive) classes. We implemented a detection time of 30 mins and a cutoff threshold of 0.6 to differentiate between positive and negative specimens (FIG. 34G).

[16] = test system: E. coli
Experimental: To evaluate the QolorAST performance in clinical settings, a double-blinded clinical study at the McGill University Health Center (MUHC) was performed. 47 patients suspected of urinary tract infections, admitted to MUHC emergency clinics between August 2022 to August 2023 were tested. Specimens were consented, collected from the patients and the experiments were done in microbiology labs in MUHC. Each specimen were divided in 3 to be tested in parallel in the central laboratory of the hospital (quantification, identification and MIC), in the research laboratory (quantification, identification and MIC for 2 antibiotics) and with QolorAST genotypic/phenotypic assays in microbiology lab at MUHC. The device has 24 chambers where the media/resazurin/antibiotic mixes as well as the patient samples are injected mixed. […] Therefore, reagent loading port was preloaded with media, specific concentration antibiotic and resazurin at final concentration of 0.25 mg/mL and urine was added to urine loading port. Thereafter, by pressing the pushing button the urine was mixed with the rest of solution at a volumetric ratio of 1:4 which would be the starting point for incubation and imaging of the samples. The samples were incubated at 37° C. at different timepoints starting from 0 to 60 minutes with a time interval of 10 minutes and the imaging was performed as described above.

## O=C(O)c1cn(C2CC2)c2cc(N3CCNCC3)c(F)cc2c1=O [Ciprofloxacin]
[1]
  QolorAST colour readout over incubation: consistent blue color
[2]
  QolorAST MIC Manual (MA-MIC): 1 mg/L
  QolorAST MIC SVM (SVM-MIC): 1 mg/L
  resistance or susceptibility: susceptibility
[3]
  QolorAST colour readout over incubation: consistent color change from blue to green

## COc1cc(Cc2cnc(N)nc2N)cc(OC)c1OC [Trimethoprim]
[4]
  MIC: 0.312 mL⁻¹
  resistance profile based on the CLSI MIC cut off values: susceptible

## Colistin
[5]
  Broth Microdilution MIC (MIC): 8
[6]
  MA-MIC/SVM-MIC/MIC Category: R/R/R
  QolorAST MIC Manual (MA-MIC): 8 mg/L
  QolorAST MIC SVM (SVM-MIC): 8 mg/L
[6]; both manually and through SVM
  MIC: 8 mg/L
[7]
  MA-MIC/SVM-MIC/MIC Category: R/R/R*
  QolorAST MIC Manual (MA-MIC): > 128 mg/L
  QolorAST MIC SVM (SVM-MIC): > 128 mg/L
[8]
  Broth Microdilution MIC (MIC): 4
[9]
  Broth Microdilution MIC (MIC): >128
[10]
  MA-MIC/SVM-MIC/MIC Category: R/R/R*
  QolorAST MIC Manual (MA-MIC): 128 mg/L
  QolorAST MIC SVM (SVM-MIC): > 128 mg/L
  resistance or susceptibility: resistant
[11]
  Broth Microdilution MIC (MIC): 8
[12]
  Broth Microdilution MIC (MIC): 128
[13]
  MA-MIC/SVM-MIC/MIC Category: R/R/R
  QolorAST MIC Manual (MA-MIC): 4 mg/L
  QolorAST MIC SVM (SVM-MIC): 4 mg/L
[14]
  MA-MIC/SVM-MIC/MIC Category: R/R/R
  QolorAST MIC Manual (MA-MIC): 8 mg/L
  QolorAST MIC SVM (SVM-MIC): 8 mg/L

## O=C1CN(/N=C/c2ccc([N+](=O)[O-])o2)C(=O)N1 [Nitrofurantoin]
[15]; Patient # 49, E. coli
  Broth Microdilution MIC (MIC): 8
[15]; Patient # 50, E. coli
  Broth Microdilution MIC (MIC): 8
[15]; Patient # 51*, E. coli
  Broth Microdilution MIC (MIC): 16
[15]; Patient # 52, E. coli
  Broth Microdilution MIC (MIC): 16
[15]; Patient # 53, E. coli
  Broth Microdilution MIC (MIC): 6
[15]; Patient # 54, E. coli
  Broth Microdilution MIC (MIC): 4
[15]; Patient # 55, E. coli
  Broth Microdilution MIC (MIC): 8
[15]; Patient # 56, E. coli
  Broth Microdilution MIC (MIC): 8
[15]; Patient # 57, E. coli
  Broth Microdilution MIC (MIC): 8
[15]; Patient # 58, E. coli
  Broth Microdilution MIC (MIC): 8
[15]; Patient # 59, E. coli
  Broth Microdilution MIC (MIC): 16
[15]; Patient # 60, E. coli
  Broth Microdilution MIC (MIC): 16
[15]; Patient # 61, E. coli
  Broth Microdilution MIC (MIC): 4
[15]; Patient # 62, E. coli
  Broth Microdilution MIC (MIC): 6
[15]; Patient # 63, E. coli
  Broth Microdilution MIC (MIC): 4
[15]; Patient # 64, E. coli
  Broth Microdilution MIC (MIC): 8
[15]; Patient # 65, E. coli
  Broth Microdilution MIC (MIC): 8
[15]; Patient # 66, E. coli
  Broth Microdilution MIC (MIC): 8
[15]; Patient # 67*, E. coli
  Broth Microdilution MIC (MIC): 2
[15]; Patient # 68, E. coli
  Broth Microdilution MIC (MIC): 8
[16]; Patient # 49, urine specimen
  QolorAST MIC Manual (MA-MIC): 8
  QolorAST MIC SVM (SVM-MIC): 8
[16]; Patient # 50, urine specimen
  QolorAST MIC Manual (MA-MIC): 8
  QolorAST MIC SVM (SVM-MIC): 8
[16]; Patient # 51*, urine specimen
  QolorAST MIC Manual (MA-MIC): <0.25
  QolorAST MIC SVM (SVM-MIC): <0.25
[16]; Patient # 52, urine specimen
  QolorAST MIC Manual (MA-MIC): 16
  QolorAST MIC SVM (SVM-MIC): 16
[16]; Patient # 53, urine specimen
  QolorAST MIC Manual (MA-MIC): 4
  QolorAST MIC SVM (SVM-MIC): 4
[16]; Patient # 54, urine specimen
  QolorAST MIC Manual (MA-MIC): 4
  QolorAST MIC SVM (SVM-MIC): 4
[16]; Patient # 55, urine specimen
  QolorAST MIC Manual (MA-MIC): 8
  QolorAST MIC SVM (SVM-MIC): 8
[16]; Patient # 56, urine specimen
  QolorAST MIC Manual (MA-MIC): 8
  QolorAST MIC SVM (SVM-MIC): 8
[16]; Patient # 57, urine specimen
  QolorAST MIC Manual (MA-MIC): 8
  QolorAST MIC SVM (SVM-MIC): 8
[16]; Patient # 58, urine specimen
  QolorAST MIC Manual (MA-MIC): 8
  QolorAST MIC SVM (SVM-MIC): 8
[16]; Patient # 59, urine specimen
  QolorAST MIC Manual (MA-MIC): 16
  QolorAST MIC SVM (SVM-MIC): 16
[16]; Patient # 60, urine specimen
  QolorAST MIC Manual (MA-MIC): 4
  QolorAST MIC SVM (SVM-MIC): 4
[16]; Patient # 61, urine specimen
  QolorAST MIC Manual (MA-MIC): 4
  QolorAST MIC SVM (SVM-MIC): 4
[16]; Patient # 62, urine specimen
  QolorAST MIC Manual (MA-MIC): 6
  QolorAST MIC SVM (SVM-MIC): 6
[16]; Patient # 63, urine specimen
  QolorAST MIC Manual (MA-MIC): 4
  QolorAST MIC SVM (SVM-MIC): 4
[16]; Patient # 64, urine specimen
  QolorAST MIC Manual (MA-MIC): 8
  QolorAST MIC SVM (SVM-MIC): 8
[16]; Patient # 65, urine specimen
  QolorAST MIC Manual (MA-MIC): 8
  QolorAST MIC SVM (SVM-MIC): 8
[16]; Patient # 66, urine specimen
  QolorAST MIC Manual (MA-MIC): 8
  QolorAST MIC SVM (SVM-MIC): 8
[16]; Patient # 67*, urine specimen
  QolorAST MIC Manual (MA-MIC): <0.25
  QolorAST MIC SVM (SVM-MIC): <0.25
[16]; Patient # 68, urine specimen
  QolorAST MIC Manual (MA-MIC): 8
  QolorAST MIC SVM (SVM-MIC): 8
